Where two headings read alike, the source gives them in different places.
How the values were obtained:
cancer cells = assay: Survival rate of cancer cells after test compound is added (flow cytometry, Annexin V-FITC/PI, clinical specimen); assay type: cell-based, patient; settings: Homo sapiens, 18 h, read-out: Survival rate (%) All cells (Stem cells and ordinary cells)
Method in brief: (§1)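 Patient specimens (e.g. AML, CD34+/CD38+ stem-cell marker) separated on Ficoll; mononuclear cells at 1×10^6/mL in serum-free IMDM treated 18 h with compound. Cells stained for stem-cell markers, then Annexin V-FITC/PI, and apoptosis measured by flow cytometry within one hour.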

[1] = test system: IL-1β secreted by synoviocyte; assay: Content of IL-1β in culture supernatant of synoviocyte of RA model rats given test compound; assay type: in vivo; settings: rat RA model, dose 30 mg/kg.2d; normal control 0.16 ± 0.034, NaCl 0.49 ± 0.136
Method in brief: (§2)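 Animals with induced RA are grouped and dosed with compound (30 mg/kg.2d) alongside NaCl and normal controls. Synoviocytes are prepared and cultured, and supernatants are harvested. TNF-α and PGE2 secretion are then quantified by one procedure, IL-1β by another.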

cancer stem cells = assay: Survival rate of cancer stem cells after test compound is added (flow cytometry, Annexin V-FITC/PI, clinical specimen); assay type: cell-based, patient; settings: Homo sapiens, 18 h
Method in brief: as §1

[2] = test system: PGE2 secreted by synoviocyte; assay: Content of PGE2 in culture supernatant of synoviocyte of RA model rats given test compound; assay type: in vivo; settings: rat RA model, dose 30 mg/kg.2d; normal control 8.34 ± 1.29, NaCl 32.44 ± 10.32
Method in brief: as §2

normal cells = assay: Survival rate of normal cells after test compound is added (flow cytometry, Annexin V-FITC/PI); assay type: cell-based; settings: 18 h
Method in brief: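 Survival was determined in clinical specimens after an 18 h compound treatment, using Annexin V-FITC/PI apoptosis staining and flow cytometry.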

[3] = Head and neck squamous cell carcinomas
[4] = read-out: Survival rate (%) All cells (Stem cells and ordinary cells)
[5] = read-out: Survival rate (%) Stem cells

CN(C)C[C@@H]1C(=O)O[C@H]2[C@H]1CCC1(CC1)[C@@H]1CCC3(CC3)[C@H]21 [Compound 27]
viability at 10 µM (cancer cells; AML): 90%
viability at 20 µM (cancer cells; AML): 86%
viability at 10 µM (cancer cells; Brain glioma): 91%
viability at 20 µM (cancer cells; Brain glioma): 88%
viability at 10 µM (cancer cells; Brain tumor): 94%
viability at 20 µM (cancer cells; Brain tumor): 87%
viability at 10 µM (cancer cells; Breast cancer): 88%
viability at 20 µM (cancer cells; Breast cancer): 85%
viability at 10 µM (cancer cells; CLL): 93%
viability at 20 µM (cancer cells; CLL): 88%
viability at 10 µM (cancer cells; CML): 94%
viability at 20 µM (cancer cells; CML): 87%
viability at 10 µM (cancer cells; Children hepatoblastoma): 88%
viability at 20 µM (cancer cells; Children hepatoblastoma): 87%
viability at 10 µM (cancer cells; Colon adenocarcinoma): 89%
viability at 20 µM (cancer cells; Colon adenocarcinoma): 87%
viability at 10 µM (cancer cells; Colorectal cancer): 93%
viability at 20 µM (cancer cells; Colorectal cancer): 86%
viability at 10 µM (cancer cells; Gastric cancer): 87%
viability at 20 µM (cancer cells; Gastric cancer): 83%
viability at 10 µM (cancer cells; Gastrointestinal tumor): 90%
viability at 20 µM (cancer cells; Gastrointestinal tumor): 86%
viability at 10 µM (cancer cells; Glioma): 88%
viability at 20 µM (cancer cells; Glioma): 82%
viability at 10 µM (cancer cells; [3]): 87%
viability at 20 µM (cancer cells; [3]): 83%
viability at 10 µM (cancer cells; Laryngeal cancer): 92%
viability at 20 µM (cancer cells; Laryngeal cancer): 89%
viability at 10 µM (cancer cells; Liver cancer): 90%
viability at 20 µM (cancer cells; Liver cancer): 86%
viability at 10 µM (cancer cells; Lung adenocarcinoma): 89%
viability at 20 µM (cancer cells; Lung adenocarcinoma): 86%
viability at 10 µM (cancer cells; Lung cancer): 88%
viability at 20 µM (cancer cells; Lung cancer): 81%
viability at 10 µM (cancer cells; Malignant melanoma): 91%
viability at 20 µM (cancer cells; Malignant melanoma): 85%
viability at 10 µM (cancer cells; Nasopharynx cancer): 91%
viability at 20 µM (cancer cells; Nasopharynx cancer): 85%
viability at 10 µM (cancer cells; Ovarian cancer): 88%
viability at 20 µM (cancer cells; Ovarian cancer): 84%
viability at 10 µM (cancer cells; Pancreatic cancer): 93%
viability at 20 µM (cancer cells; Pancreatic cancer): 92%
viability at 10 µM (cancer cells; Prostate cancer): 91%
viability at 20 µM (cancer cells; Prostate cancer): 88%
viability at 10 µM (cancer cells; Retinoblastoma): 94%
viability at 20 µM (cancer cells; Retinoblastoma): 86%
viability at 10 µM (cancer cells; Skin cancer): 94%
viability at 20 µM (cancer cells; Skin cancer): 81%
Content of IL-1β in culture supernatant of synoviocyte (x ± s) [1]: 0.41 ± 0.047 ng/mL
viability at 10 µM (cancer stem cells; AML): 87%
viability at 20 µM (cancer stem cells; AML): 77%
viability at 10 µM (cancer stem cells; Brain glioma): 84%
viability at 20 µM (cancer stem cells; Brain glioma): 78%
viability at 10 µM (cancer stem cells; Brain tumor): 87%
viability at 20 µM (cancer stem cells; Brain tumor): 76%
viability at 10 µM (cancer stem cells; Breast cancer): 84%
viability at 20 µM (cancer stem cells; Breast cancer): 76%
viability at 10 µM (cancer stem cells; CLL): 87%
viability at 20 µM (cancer stem cells; CLL): 82%
viability at 10 µM (cancer stem cells; CML): 87%
viability at 20 µM (cancer stem cells; CML): 76%
viability at 10 µM (cancer stem cells; Children hepatoblastoma): 82%
viability at 20 µM (cancer stem cells; Children hepatoblastoma): 79%
viability at 10 µM (cancer stem cells; Colon adenocarcinoma): 82%
viability at 20 µM (cancer stem cells; Colon adenocarcinoma): 78%
viability at 10 µM (cancer stem cells; Colorectal cancer): 85%
viability at 20 µM (cancer stem cells; Colorectal cancer): 79%
viability at 10 µM (cancer stem cells; Gastric cancer): 81%
viability at 20 µM (cancer stem cells; Gastric cancer): 75%
viability at 10 µM (cancer stem cells; Gastrointestinal tumor): 86%
viability at 20 µM (cancer stem cells; Gastrointestinal tumor): 77%
viability at 10 µM (cancer stem cells; Glioma): 80%
viability at 20 µM (cancer stem cells; Glioma): 75%
viability at 10 µM (cancer stem cells; [3]): 81%
viability at 20 µM (cancer stem cells; [3]): 75%
viability at 10 µM (cancer stem cells; Laryngeal cancer): 85%
viability at 20 µM (cancer stem cells; Laryngeal cancer): 77%
viability at 10 µM (cancer stem cells; Liver cancer): 86%
viability at 20 µM (cancer stem cells; Liver cancer): 77%
viability at 10 µM (cancer stem cells; Lung adenocarcinoma): 82%
viability at 20 µM (cancer stem cells; Lung adenocarcinoma): 76%
viability at 10 µM (cancer stem cells; Lung cancer): 79%
viability at 20 µM (cancer stem cells; Lung cancer): 72%
viability at 10 µM (cancer stem cells; Malignant melanoma): 82%
viability at 20 µM (cancer stem cells; Malignant melanoma): 74%
viability at 10 µM (cancer stem cells; Nasopharynx cancer): 82%
viability at 20 µM (cancer stem cells; Nasopharynx cancer): 74%
viability at 10 µM (cancer stem cells; Ovarian cancer): 83%
viability at 20 µM (cancer stem cells; Ovarian cancer): 77%
viability at 10 µM (cancer stem cells; Pancreatic cancer): 86%
viability at 20 µM (cancer stem cells; Pancreatic cancer): 78%
viability at 10 µM (cancer stem cells; Prostate cancer): 84%
viability at 20 µM (cancer stem cells; Prostate cancer): 78%
viability at 10 µM (cancer stem cells; Retinoblastoma): 85%
viability at 20 µM (cancer stem cells; Retinoblastoma): 80%
viability at 10 µM (cancer stem cells; Skin cancer): 85%
viability at 20 µM (cancer stem cells; Skin cancer): 74%
Content of PGE2 in culture supernatant of synoviocyte (x ± s) [2]: 24.75 ± 2.66 ng/mL
viability at 10 µM (normal cells; [4]): 91%
viability at 10 µM (normal cells; [5]): 88%
viability at 20 µM (normal cells; [4]): 89%
viability at 20 µM (normal cells; [5]): 81%

From US10463644B2, “Uses of sesquiterpene lactone compounds and their derivatives in drugs preparation” (ACCENDATECH, priority 2013, dated 2019)
